Assay results reported in patent US8471015B2, “Process for producing a green fluorescent protein comprising coelenteramide or an analog thereof” (JNC Corporation, priority 2009, dated 2013).
Where two headings read alike, the source gives them in different places.

How the values were obtained:
apoaequorin = molecular target: T1, apoaequorin (Aequorea victoria, UniProt P07164); format: biochemical
T1 construct: OmpA signal peptide (N, cleaved yes); made in house; host or cells: Escherichia coli strain WA802
Procedure: Apoaequorin (0.5 mg, 22 nmol) was mixed with 10 μl of coelenteramide (1.2 μg/μl, 29 nmol, in anhydrous methanol) in 1 ml of 50 mM Tris-HCl (pH 7.6) containing 10 mM CaCl2 and 1 mM DTT. […] Subsequently, syn-BFP was treated at 4° C., 5,000×g for 20 minutes using centrifugal concentrator Vivaspin 2 (10,000 MWCO, Sartorius AG, Germany) to concentrate the mixture to 0.1 ml.
Regarding the production of synthetic gFP (syn-gFP) from apoaequorin and coelenteramide, apoaequorin (0.5 mg, 22 nmol) was mixed with 10 μl of coelenteramide (1.2 μg/μl, 29 nmol, in anhydrous methanol) in 1 ml of 50 mM Tris-HCl (pH 7.6) containing 10 mM EDTA and 1 mM DTT. […]
Absorption spectra were measured at 25° C. with a Jasco (Tokyo, Japan) V-560 spectrophotometer (bandwidth: 0.5 nm, response, medium; scan speed, 100 nm/min.) using a quartz cuvette (10 mm light path). Also, fluorescence spectra were measured on a Jasco FP-6500 fluorescence spectrophotometer (emission/excitation bandwidth: 3 nm, response: 0.5 sec., scan speed: 1000 nm/min.).

T1 sequence (P07164 other isoform, or with tags, fused parts or gaps with the stated changes): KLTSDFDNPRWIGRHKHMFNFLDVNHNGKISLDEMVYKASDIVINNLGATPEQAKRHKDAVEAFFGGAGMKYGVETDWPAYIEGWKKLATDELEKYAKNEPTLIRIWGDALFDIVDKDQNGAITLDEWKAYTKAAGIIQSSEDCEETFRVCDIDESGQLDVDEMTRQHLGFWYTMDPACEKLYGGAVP

melting point [°C] | SMILES | Fluorescence intensity (rlu) (excited at 332 nm) (apoaequorin; 10 mM Ca^2+ (Imax, 465 nm), +DTT, 0 hr) | Fluorescence intensity (rlu) (excited at 332 nm) (apoaequorin; 10 mM Ca^2+ (Imax, 465 nm), +DTT, 0.5 hr) | Fluorescence intensity (rlu) (excited at 332 nm) (apoaequorin; 10 mM Ca^2+ (Imax, 465 nm), +DTT, 16 hrs) | Fluorescence intensity (rlu) (excited at 332 nm) (apoaequorin; 10 mM Ca^2+ (Imax, 465 nm), -DTT series, then +DTT, 24 hrs) | Fluorescence intensity (rlu) (excited at 332 nm) (apoaequorin; 10 mM Ca^2+ (Imax, 465 nm), -DTT, 0 hr) | Fluorescence intensity (rlu) (excited at 332 nm) (apoaequorin; 10 mM Ca^2+ (Imax, 465 nm), -DTT, 16 hrs) | Fluorescence intensity (rlu) (excited at 332 nm) (apoaequorin; 10 mM EDTA (Imax, 469.5 nm), +DTT, 0 hr) | Fluorescence intensity (rlu) (excited at 332 nm) (apoaequorin; 10 mM EDTA (Imax, 469.5 nm), +DTT, 0.5 hr) | Fluorescence intensity (rlu) (excited at 332 nm) (apoaequorin; 10 mM EDTA (Imax, 469.5 nm), +DTT, 16 hrs) | Fluorescence intensity (rlu) (excited at 332 nm) (apoaequorin; 10 mM EDTA (Imax, 469.5 nm), -DTT series, then +DTT, 24 hrs) | Fluorescence intensity (rlu) (excited at 332 nm) (apoaequorin; 10 mM EDTA (Imax, 469.5 nm), -DTT, 0 hr) | Fluorescence intensity (rlu) (excited at 332 nm) (apoaequorin; 10 mM EDTA (Imax, 469.5 nm), -DTT, 16 hrs)
189.5 to 191 | COc1ccc(CC(=O)Nc2ncc(-c3ccc(OC)cc3)nc2Cc2ccccc2)cc1 [IV, coelenteramide dimethyl ether] | – | – | – | – | – | – | – | – | – | – | – | –
– | O=C(Cc1ccc(O)cc1)Nc1ncc(-c2ccc(O)cc2)nc1Cc1ccccc1 [Coelenteramide, coelenteramide] | 25.4 | 28.4 | 29.5 | 22.0 | 9.8 | 11.3 | 20.2 | 22.7 | 23.1 | 24.3 | 14.8 | 18.7
